Experimental data from patent publication US20100081693A1, “T[…] AND USE THEREOF” (priority 2006, published 2010).
Read-outs that look alike come from different tables or passages of the source.

Key:
Format in all cases: in vivo
Tetranychus urticae = experiment: Test Example 4: spray test on Tetranychus urticae on vineless common bean; conditions: 192 h, read-out: Controlling rate (%)
Procedure: Each of present compounds (1) to (3), (5), (17), (39), (55) to (57), (120) to (124), (129), (130), (135), (136), (139) to (141), (232), (236), (243), (255), (262), and the comparative compound (A) was formulated into a preparation according to Preparation Example 5. This preparation was diluted with water so that the concentration of the present compound or the comparative compound (A) became 500 ppm.
Meanwhile, about 60 Tetranychus urticae female imagoes were released on a vineless common bean plantlet (7 days after seeding, first leaf development phase) planted in a plastic cup, which was allowed to stand for 1 day. To this plantlet was sprayed 20 ml of each of the above diluted solutions.
Eight days after spraying, the number of surviving mites on a leaf of the vineless common bean was investigated, and a controlling rate was calculated according to the following equation.
Controlling rate (%)=100×{1−(number of surviving mites of treated group)/(number of surviving mites of non-treated group)}

tobacco whitefly = experiment: Test Example 3: spray test on tobacco whitefly larvae on cabbage; conditions: 168 h, sprayed on cabbage at 20 ml/cup, hatched larvae, seven days after spraying, read-out: Controlling value (%)
cotton aphids [1] = experiment: Test Example 2: soil immersion treatment of cucumber, cotton aphids inoculated afterwards; conditions: 144 h, 500 ppm test solution (5 ml + 40 ml water), aphids inoculated after 7 days, counted 6 days later, 25° C., read-out: Controlling value (%)
Procedure: Into a beer cup were poured 5 ml of the test diluted solution and 40 ml of water, where a cucumber planted in a polyethylene cup and grown to develop a first true leaf was accommodated, and the soil part was subjected to immersion-treatment. The plant was retained in a greenhouse at 25° C. for 7 days, 30 cotton aphids (all stages) were inoculated on a cucumber leaf surface, the plant was further retained in a greenhouse at 25° C. for 6 days, the number of surviving worms of cotton aphids parasitized on the leaf surface was investigated, and a controlling value was calculated according to the following equation.
(§1) Controlling value (%)={1−(Cb×Tai)/(Cai×Tb)}×100
(§2) Cb is the number of worms before treatment of a non-treated group.
(§3) Cai is the number of worms at observation of a non-treated group.
(§4) Tb is the number of worms before treatment of a treated group.
(§5) Tai is the number of worms at observation of a treated group.

cotton aphids [2] = experiment: Test Example 1: spray test on cotton aphids parasitized on cucumber; conditions: 144 h; 500 ppm active ingredient, sprayed on cucumber at 20 ml/cup, six days after spraying; read-out: Controlling value (%)
Procedure: On the other hand, a cucumber was planted in a polyethylene cup, and grown until a first true leaf was developed, and 30 cotton aphids were parasitized thereon. One day after, the test spray solution was sprayed to the cucumber at a ratio of 20 ml/cup. Six days after spraying, the number of cotton aphids was investigated, and a controlling value was calculated according to the following equation.
as §1, §2, §3, §4, §5

[3] = 500 ppm, 20 ml sprayed on common bean plantlet, female imagoes, eight days after spraying

SMILES | pest or weed control at 500 ppm (tobacco whitefly) [%] | pest or weed control at 500 ppm (cotton aphids [1]) [%] | further results
CCCCOc1nc(SC(=O)N(C)C)ns1 [(5)] | ≥ 90 | – | pest or weed control at 500 ppm (Tetranychus urticae; [3]): ≥ 90%
C#CCOc1nc(SC(=O)N(C)C)ns1 [(7)] | ≥ 90 | – | –
CC#CCOc1nc(SC(=O)N(C)C)ns1 [(8)] | ≥ 90 | – | –
CN(C)C(=O)Sc1nsc(OC2CCOCC2)n1 [(17)] | ≥ 90 | ≥ 90 | pest or weed control at 500 ppm (Tetranychus urticae; [3]): ≥ 90%
CN(C)C(=O)Sc1nsc(OCCCn2cccn2)n1 [(19)] | – | ≥ 90 | –
CN(C)C(=O)Sc1nsc(OCC(C)(C)C)n1 [(31)] | ≥ 90 | – | –
CN(C)C(=O)Sc1nsc(OCCC(C)(C)C)n1 [(33)] | – | – | pest or weed control at 500 ppm (cotton aphids [2]): ≥ 90%
C=CCCCOc1nc(SC(=O)N(C)C)ns1 [(34)] | ≥ 90 | ≥ 90 | pest or weed control at 500 ppm (cotton aphids [2]): ≥ 90%
C#CCC(C)Oc1nc(SC(=O)N(C)C)ns1 (stereo not shown) [(38)] | ≥ 90 | – | –
C#CC(C)Oc1nc(SC(=O)N(C)C)ns1 (stereo not shown) [(39)] | ≥ 90 | – | pest or weed control at 500 ppm (Tetranychus urticae; [3]): ≥ 90%
CN(C)C(=O)Sc1nsc(OCCCCl)n1 [(49)] | ≥ 90 | ≥ 90 | –
CN(C)C(=O)Sc1nsc(OCCCCCl)n1 [(50)] | – | ≥ 90 | –
CN(C)C(=O)Sc1nsc(OCC(C)(C)CCl)n1 [(52)] | ≥ 90 | – | –
CN(C)C(=O)Sc1nsc(OCC(F)(F)C(F)(F)F)n1 [(59)] | ≥ 90 | ≥ 90 | pest or weed control at 500 ppm (cotton aphids [2]): ≥ 90%
CC(Oc1nc(SC(=O)N(C)C)ns1)C(F)(F)C(F)(F)F (stereo not shown) [(61)] | ≥ 90 | ≥ 90 | pest or weed control at 500 ppm (cotton aphids [2]): ≥ 90%
CN(C)C(=O)Sc1nsc(OCC(F)(F)C(F)(F)C(F)(F)F)n1 [(62)] | – | ≥ 90 | pest or weed control at 500 ppm (cotton aphids [2]): ≥ 90%
CCC(Oc1nc(SC(=O)N(C)C)ns1)C(C)(C)C (stereo not shown) [(64)] | – | – | pest or weed control at 500 ppm (cotton aphids [2]): ≥ 90%
CN(C)C(=O)Sc1nsc(OCCCl)n1 [(67)] | ≥ 90 | – | –
CN(C)C(=O)Sc1nsc(OCc2ccsc2)n1 [(74)] | – | – | pest or weed control at 500 ppm (cotton aphids [2]): ≥ 90%
CN(C)C(=O)Sc1nsc(OCc2cccc(F)c2)n1 [(79)] | – | ≥ 90 | –
CN(C)C(=O)Sc1nsc(OCc2cccc(Cl)c2Cl)n1 [(99)] | – | – | pest or weed control at 500 ppm (cotton aphids [2]): ≥ 90%
CN(C)C(=O)Sc1nsc(OCc2c(Cl)cccc2Cl)n1 [(102)] | – | – | pest or weed control at 500 ppm (cotton aphids [2]): ≥ 90%
CN(C)C(=O)Sc1nsc(OCc2ccc(Cl)c(Cl)c2)n1 [(103)] | – | – | pest or weed control at 500 ppm (cotton aphids [2]): ≥ 90%
CN(C)C(=O)Sc1nsc(OCc2ccc(F)c(C(F)(F)F)c2)n1 [(111)] | ≥ 90 | – | –
CN(C)C(=O)Sc1nsc(OCc2ccc(C(F)(F)F)cc2C(F)(F)F)n1 [(112)] | ≥ 90 | – | –

SMILES | pest or weed control at 500 ppm (tobacco whitefly) [%] | pest or weed control at 500 ppm (cotton aphids [1]) [%] | further results
CC1(C)OCC(COc2nc(SC(=O)N3CCOCC3)ns2)O1 (stereo not shown) [(119)] | ≥ 90 | – | –
CCCOc1nc(SC(=O)N2CCOCC2)ns1 [(120)] | ≥ 90 | – | –
CCOc1nc(SC(=O)N2CCOCC2)ns1 [(122)] | ≥ 90 | – | –
CC#CCOc1nc(SC(=O)N2CCOCC2)ns1 [(125)] | – | ≥ 90 | –
O=C(Sc1nsc(OCC2CCOC2)n1)N1CCOCC1 (stereo not shown) [(127)] | – | ≥ 90 | –
O=C(Sc1nsc(OCC2COCO2)n1)N1CCOCC1 (stereo not shown) [(129)] | – | ≥ 90 | pest or weed control at 500 ppm (Tetranychus urticae; [3]): ≥ 90%
O=C(Sc1nsc(OC2COCOC2)n1)N1CCOCC1 [(130)] | – | ≥ 90 | pest or weed control at 500 ppm (Tetranychus urticae; [3]): ≥ 90%
COc1nc(SC(=O)N2CCCC2)ns1 [(135)] | – | – | pest or weed control at 500 ppm (Tetranychus urticae; [3]): ≥ 90%
CCOc1nc(SC(=O)N2CCCC2)ns1 [(136)] | – | – | pest or weed control at 500 ppm (Tetranychus urticae; [3]): ≥ 90%
O=C(Sc1nsc(Cl)n1)N1CCCC1 [(147)] | – | ≥ 90 | –
CCOC(CCOc1nc(SC(=O)N(C)C)ns1)OCC [(201)] | ≥ 90 | ≥ 90 | pest or weed control at 500 ppm (cotton aphids [2]): ≥ 90%
CN(C)C(=O)Sc1nsc(OCCCOc2nc(SC(=O)N(C)C)ns2)n1 [(204)] | – | – | pest or weed control at 500 ppm (cotton aphids [2]): ≥ 90%
CN(C)C(=O)Sc1nsc(OCCCCOc2nc(SC(=O)N(C)C)ns2)n1 [(206)] | ≥ 90 | – | –
CN(C)C(=O)Sc1nsc(OCc2ccccc2)n1 [(211)] | ≥ 90 | – | pest or weed control at 500 ppm (cotton aphids [2]): ≥ 90%
CN(C)C(=O)Sc1nsc(OCc2ccccn2)n1 [(215)] | ≥ 90 | – | –
Cc1nn(C)c(Oc2nc(SC(=O)N(C)C)ns2)c1C [(218)] | – | ≥ 90 | –
CN(C)C(=O)Sc1nsc(OCCOc2nc(SC(=O)N(C)C)ns2)n1 [(225)] | – | – | pest or weed control at 500 ppm (cotton aphids [2]): ≥ 90%
CN(C)C(=O)Sc1nsc(OCCOCC(F)(F)F)n1 [(232)] | – | – | pest or weed control at 500 ppm (Tetranychus urticae; [3]): ≥ 90%
COCC(C)Oc1nc(SC(=O)N(C)C)ns1 (stereo not shown) [(236)] | – | – | pest or weed control at 500 ppm (Tetranychus urticae; [3]): ≥ 90%
COCCOc1nc(SC(=O)N2CCCC2)ns1 [(243)] | – | – | pest or weed control at 500 ppm (Tetranychus urticae; [3]): ≥ 90%
C=CCOc1nc(SC(=O)N(C)C)ns1 [(255)] | – | – | pest or weed control at 500 ppm (Tetranychus urticae; [3]): ≥ 90%
C[C@H](Oc1nc(SC(=O)N2CCCC2)ns1)[C@H]1COC(C)(C)O1 [(262)] | – | – | pest or weed control at 500 ppm (Tetranychus urticae; [3]): ≥ 90%
COCC(COc1nc(SC(=O)N(C)C)ns1)OC (stereo not shown) [(277)] | – | ≥ 90 | –
CCCOc1nc(OC(=O)N(C)C)ns1 [comparative compound (A), reference compound] | 0 | – | pest or weed control at 500 ppm (Tetranychus urticae): 0%
